From US11471430B2, “Sphingosine analogs and use thereof against bacterial lung infections” (Yeda Research and Development Co. Ltd., priority 2018, dated 2022)

Legend:
CerS5 [1] = biological target: T1, CerS5 (Homo sapiens (Human), UniProt Q8N5B7); test: Inhibition of ceramide synthesis (CerS5) measured in vitro; format: biochemical
Method: (§1) Ceramide synthase assays were carried out as follows. Cell homogenates were incubated with 15 μM NBD-SPH, 20 μM defatted bovine serum albumin, and 50 μM fatty acyl CoA in a 20 μl reaction volume at 37° C. Reactions were terminated by addition of chloroform/methanol (1:2, v/v) and lipids extracted. Lipids were dried under N2, re-suspended in chloroform/methanol (9:1, v/v) and separated by TLC using chloroform/methanol/2M NH4OH (40:10:1, v/v/v) as the developing solvent. NBD-labelled lipids were visualized using a Typhoon 9410 variable mode imager and quantified by ImageQuantTL (GE Healthcare, Chalfont St Giles, UK).

P. aeruginosa strain 762 = P. aeruginosa strain 762 killing assay; format: cell-based; settings: Pseudomonas aeruginosa; P. aeruginosa strain 762, 2 hours at 37° C., colonies counted
Method: Incubation of bacteria with the sphingosine analogs presented herein was carried out as follows. P. aeruginosa strain 762 was grown in LB medium at 37° C. until the early logarithmic phase (OD550 of 0.2). Bacteria were diluted in PBS (without Ca^+2 and Mg^+2) to a concentration of 5×10^3 CFU/ml. Stock solutions of sphingolipid analogs in 5 mM in 7.5% n-octyl-β-D-glucopyranoside (OGP) or in dimethyl sulfoxide (DMSO) were prepared by sonication and warming to 40° C. The sphingosine analogs presented herein were added to the bacteria (0.05-200 μM in 0.075% OGP or 1% DMSO). Bacteria were incubated with the sphingosine analogs presented herein for 2 hours at 37° C., and 200 μl of a bacteria solution plated on LB agar plates, incubated overnight at 37° C., and colonies counted.
The ability of the sphingo sine analogs presented herein to kill Pseudomonas aeruginosa in vitro, and based on the data shown below, concluded that the SPH analogs presented herein are highly efficient in killing bacteria. Compounds 791598 and 791577 were used as activity assay control references.
FIGS. 1A-D present comparative plots, showing the results of the P. aeruginosa strain 762 killing assay, conducted for sphingosine analogs presented herein.

CerS5 [2] = biological target: T1, CerS5; test: N-acylation by CerS5 using labeled palmitoyl CoA, relative to sphinganine; format: biochemical; settings: for Rate of N-Acylation / Rate of N-Acylation (either pmol/mg/min or % of control): CerS5, labeled palmitoyl CoA; for Rate of N-Acylation: n=1-2; for N-Acylation using 14C labeled palmitoyl CoA: Yes/No, CerS5; for Rate of N-Acylation (% of control): control sphinganine = 100% acylation; for Rate of N-Acylation (either pmol/mg/min or % of control): unit not given
Method: (§2) N-acylation was determined by incubating homogenates with 15 μM dhSo, 20 μM defatted BSA and 0.01 uCi C16-[14C] acyl-CoA/46 μM C16 acyl-CoA in a final volume of 250 μl.
An additional assay determined whether the sphingosine analogs presented herein are N-acylated by CerS5 expressed, relative to sphinganine (control; 100% acylation), using labeled palmitoyl CoA (n=1-2).

[3] = system: ceramide synthases (CerS); test: N-acylation by ceramide synthases using 14C labeled CoA; format: biochemical; settings: 14C labeled CoA as a substrate; raw data not shown
Method: as §2
To determine whether the sphingosine analogs presented herein can be metabolized by ceramide synthases (CerS—natural sphingosine is a substrate for CerS), their N-acylation using ^14C labeled CoA as a substrate was examined.

CerS5 [4] = biological target: T1, CerS5; test: CerS5 activity/inhibition assay using NBD sphinganine; format: biochemical; settings: read-out: CerS5 activity (percentage of control); for remaining activity at 25 µM: 25 μM compound; for remaining activity at 50 µM: 50 μM compound; for remaining activity at 75 µM: 75 μM compound
Method: as §1
Table 4 below presents the results for the CerS5 activity/inhibition assay using NBD sphinganine (given as percentage of control).

P. aeruginosa = settings: injected immediately prior to infection, or an hour after infection; cited from earlier work

T1 sequence (Q8N5B7 whole entry, species assumed): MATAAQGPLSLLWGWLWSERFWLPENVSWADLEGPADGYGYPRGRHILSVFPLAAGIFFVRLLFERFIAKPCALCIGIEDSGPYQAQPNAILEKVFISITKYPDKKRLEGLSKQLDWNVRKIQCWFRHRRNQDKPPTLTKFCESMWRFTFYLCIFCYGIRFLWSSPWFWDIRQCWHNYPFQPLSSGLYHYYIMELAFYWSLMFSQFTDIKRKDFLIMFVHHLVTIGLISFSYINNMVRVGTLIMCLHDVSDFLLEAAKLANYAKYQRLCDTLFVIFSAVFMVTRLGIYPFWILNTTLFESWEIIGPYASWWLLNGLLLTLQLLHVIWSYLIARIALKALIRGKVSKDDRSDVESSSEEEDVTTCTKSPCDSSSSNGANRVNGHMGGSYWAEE

Row | Compound | CerS5 activity (% of control) (CerS5 [1]) | EC50 (P. aeruginosa strain 762) [nM] | Rate of N-Acylation (CerS5 [2]) [pmol/mg/min] | N-Acylation using 14C labeled palmitoyl CoA (CerS5 [2]) | Rate of N-Acylation (% of control) (CerS5 [2]) | Rate of N-Acylation (either pmol/mg/min or % of control) (CerS5 [2]) | N-acylation by CerS (substrate or not) [3] | remaining activity at 25 µM (CerS5 [4]) [%] | remaining activity at 50 µM (CerS5 [4]) [%] | remaining activity at 75 µM (CerS5 [4]) [%] | P. aeruginosa infection in CF mice (P. aeruginosa)
1 | CCCCCCCCCCCCCCC[C@H](N)[C@H](N)CN [Compound 791598] | 111.3 ± 34.9 % of control | 990 ± 10 | 10.4 ± 10.1 | No | (1.97% of control) |  |  |  |  |  | 
2 | CCCCCCCCCCCCCCNC(=O)[C@H](N)CN [Compound 791993] |  | 940 ± 322 |  |  |  | 0.98 ± 0.09 pmol/mg/min or % of control |  |  |  |  | 
3 | CCCCCCCCCCCCc1ccc(NC(=O)[C@@H](N)CN)cc1 [Compound 791995] |  | 870 ± 91 |  | No |  | 0.14 ± 0.004 pmol/mg/min or % of control | not substrates for CerS | 107 ± 24 | 119 ± 20.9 | 109 ± 26.9 | 
4 | CCCCCCCCCCCCC/C=C/[C@@H](O)[C@@H](N)CO [sphingosine] |  |  |  |  |  |  |  |  |  |  | completely blocked
5 | CCCCCCCCCC/C=C/CCC(N)(O)CO (centres unmarked) [Compound 791581] | 71.5 ± 19.0 % of control | 1090 ± 310 | 4.2 ± 4.5 | No | (0.79% of control) |  |  |  |  |  | 
6 | CCCCCCCCCCCCCCC[C@H](O)[C@H](CO)N(C)C [Compound 791577] | 92.9 ± 28.7 % of control | > 2500 | 4.7 ± 2.4 | No | (0.89% of control) |  |  |  |  |  | 
7 | CCCCCCCCCCCCc1ccc(NC(=O)[C@H](N)CN)cc1 [Compound 791996] |  | 810 ± 240 |  | No |  | 0.02 ± 0.003 pmol/mg/min or % of control | not substrates for CerS | 96.7 ± 12.8 | 104 ± 21.2 | 105 ± 13.9 | 
8 | CCCCCCCCCCCCCCC[C@H](N)[C@H](CN)N(C)C [Compound 791580] | 58.1 ± 20.1 % of control | 390 ± 60 | 6.1 ± 2.6 | No | (1.15% of control) |  |  |  |  |  | 
9 | CCCCCCCCCCCCc1ccc(NC(=O)C(O)CN)cc1 (centres unmarked) [Compound 792211] |  | 260 ± 90 |  | Yes |  | 114.21 ± 3.11 pmol/mg/min or % of control |  | 163 ± 37.9 | 73.5 ± 8.98 | 49.8 ± 26.6 | 
10 | CCCCCCCCCCCCc1ccc(NC(=O)[C@@H](N)CCN)cc1 [Compound 792212] |  | 160 ± 70 |  | No |  | 2.77 ± 0.65 pmol/mg/min or % of control |  | 163 ± 82.3 | 138 ± 59 | 119 ± 32.8 | 
11 | CCCCCCCCCC/C=C/CCC(N)(N)CN [Compound 791582] | 68.2 ± 10.4 % of control | 540 ± 180 | 14.4 ± 7.7 | No | (2.72% of control) |  |  |  |  |  | 
12 | CCCCCCCCCCCCCCCCNC(=O)C(N)CN (centres unmarked) [Compound 792208] |  | 720 ± 260 |  |  |  | 2.81 ± 1.06 pmol/mg/min or % of control |  | 114 ± 21.4 | 81.9 ± 7.15 | 72.7 ± 5.76 | 
13 | CCCCCCCCCCCCCCC[C@@H](N)[C@H](CN)N(C)C [Compound 791579] | 69.2 ± 8.9 % of control | 580 ± 140 | 4.1 ± 3.0 | No | (0.77% of control) |  |  |  |  |  | 
14 | CCCCCCCC/C=C\CCCCCCCC[C@@H](O)[C@H](N)CO [Compound 791601] | 88.5 ± 10.1 % of control | 420 ± 50 | 144.6 ± 51.7 | Yes | (27.32% of control) |  |  |  |  |  | 
15 | CCCCCCCCCCCCCCC[C@H](O)[C@H](CN)N(C)C [Compound 791578] | 90.2 ± 16.4 % of control | 1440 ± 760 | 55.0 ± 6.0 | No | (10.39% of control) |  |  |  |  |  | 
16 | CCCCCCCCc1ccc(CCC(N)(CO)CO)cc1 [FTY720, fingolimod] |  |  |  |  |  |  |  |  |  |  | completely blocked
17 | CCCCC/C=C\C/C=C\CCCCCCCC[C@H](O)[C@@H](N)CO [Compound 791602] | 57.3 ± 12.2 % of control |  | 146.9 ± 0.0 | Yes | (27.76% of control) |  |  |  |  |  | 
18 | CCCCCCCCCCCCCCc1ccc(NC(=O)C(N)CN)cc1 (centres unmarked) [Compound 792205] |  | 610 ± 200 |  | No |  | 5.21 ± 1.33 pmol/mg/min or % of control |  | 98.5 ± 18.1 | 92.7 ± 19 | 59.4 ± 12.1 | 
19 | CCCCCCCCCCCCCCC[C@@H](O)[C@H](N)CN [Compound 791597] | 125.0 ± 31.1 % of control | 890 ± 230 | 18.8 ± 12.3 | No | (3.55% of control) |  |  |  |  |  | 
20 | CCCCCCCCCCCCCCNC(=O)[C@@H](N)CN [Compound 791994] |  | 1310 ± 400 |  | Yes |  | 25.42 ± 6.97 pmol/mg/min or % of control |  |  |  |  | 
21 | CCCCCCCCCCCCCCCCCCNC(=O)C(N)CN (centres unmarked) [Compound 792209] |  | > 2500 |  | No |  |  |  |  |  |  | 
22 | CCCCCCCCCCCCCCCCc1ccc(NC(=O)[C@@H](N)CN)cc1 [Compound 792206] |  | 1120 ± 180 |  | No |  | 3.78 ± 0.24 pmol/mg/min or % of control |  | 76.6 ± 12.8 |  | 125 ± 37.4 | 
23 | CCCCCCCCCCCCCCC[C@@H](O)[C@@H](N)CO [sphinganine, reference compound] | 100 ± 0 % of control |  |  |  |  |  |  |  |  |  | 
